One test concerns GX_P2V. Briefly: microbe, parasite or virus in culture. It is filed as cell-based, Guangxi pangolin-CoV (GX_P2V). The note with it: for inhibition at 0.193125 µM / inhibition at 0.39 µM / inhibition at 0.49485 µM / inhibition at 0.79588 µM / inhibition at 0.78 µM / inhibition at 1.09691 µM / inhibition at 1.69897 µM / inhibition at 1.39794 µM: Vero C1008, 48 h, read-out: Percentage of Inhibition (%).

The test system of the next test is Vero E6 cells. Briefly: cells. The note with it: Chlorocebus sabaeus, Vero C1008, 48 h, read-out: Cytoxicity (%).

One may read the inhibition as the relative decrease from the control value, in per cent.

`COc1cc2c(cc1O)[C@@H](Cc1ccc(O)cc1)N(C)CC2` [(R)-N-Methylcolaurine]: in the test on GX_P2V, the inhibition at 0.193125 µM amounted to 25.6%, the inhibition at 0.39 µM is 94.8%, the inhibition at 0.49485 µM stood at 55.7% and the inhibition at 0.79588 µM worked out at 56.1%. In addition, in the test on Vero E6 cells, the cytotoxicity at 0.193125 µM was determined as 9.96%, the cytotoxicity at 0.39 µM came to 22.3%, the cytotoxicity at 0.49485 µM is 20.1% and the cytotoxicity at 0.78 µM was determined as 13.4%. Also, in the test with Vero E6 cells, the cytotoxicity at 0.79588 µM was found to be 9.7% and the cytotoxicity at 1.39794 µM is 23.2%.
On to `COc1cc2c(cc1O)[C@H](Cc1ccc(O)cc1)N(C)CC2` [(S)-N-Methylcolaurine], for which, in the test with GX_P2V, the inhibition at 0.193125 µM came out at 17.4%, the inhibition at 0.78 µM turned out to be 15.1%, the inhibition at 0.79588 µM was found to be 91.1% and the inhibition at 1.09691 µM was 52.6%. For the same molecule, the inhibition at 1.69897 µM in the test with GX_P2V came to 20.9%. Besides, in the test with Vero E6 cells, the cytotoxicity at 0.193125 µM was determined as 6.97%, the cytotoxicity at 0.78 µM stood at 47% and the cytotoxicity at 1.39794 µM turned out to be 2.6%.
In the case of `COc1cc2c(cc1O)[C@@H]1Cc3ccc(OC)c(O)c3CN1CC2` [(S)-Scoulerine], in the test with GX_P2V, the inhibition at 0.49485 µM was 24.5%. In the test with Vero E6 cells, the cytotoxicity at 0.193125 µM was 25%, the cytotoxicity at 0.39 µM turned out to be 27.5%, the cytotoxicity at 0.49485 µM was found to be 25.7% and the cytotoxicity at 1.09691 µM came to 33.9%. In addition, in the test on Vero E6 cells, the cytotoxicity at 1.69897 µM was found to be 34%.
On to `COc1ccc2c(c1O)-c1c(O)c(OC)cc3c1[C@H](C2)N(C)CC3` [(S)-corytuberine], for which, in the test on GX_P2V, the inhibition at 0.39 µM was 54.6% and the inhibition at 0.78 µM is 42.8%.
Consider `COc1cc2c(cc1O)-c1cc3ccc(OC)c(OC)c3c[n+]1CC2` [Columbamine], for which, in the test with GX_P2V, the inhibition at 1.09691 µM amounted to 49.9% and the inhibition at 1.39794 µM is 66.7%. In addition, the cytotoxicity at 0.79588 µM with Vero E6 cells came to 34.5%.
With `NCCc1ccc(O)c(O)c1` [Compound 4, dopamine, reference compound], in the test with GX_P2V, the “Antiviral activity (bioactivity) in dose-response analysis” value is given as “do not”, the inhibition at 0.193125 µM stood at 46.7%, the inhibition at 0.39 µM came out at 33.8% and the inhibition at 0.49485 µM was found to be 92.6%. Also, the inhibition at 0.79588 µM in the test on GX_P2V was found to be 41.1%. Moreover, in the test on Vero E6 cells, the cytotoxicity at 0.49485 µM amounted to 23.1%, the cytotoxicity at 0.78 µM was 31.1% and the cytotoxicity at 1.69897 µM turned out to be 10.6%.
As for `Oc1ccc(C[C@@H]2NCCc3cc(O)c(O)cc32)cc1` [Compound 6, norcoclaurine], in the test with GX_P2V, the inhibition at 0.39 µM is 55.7%, the inhibition at 0.78 µM is 83.5% and the inhibition at 0.79588 µM amounted to 68.5%. Also, in the test on Vero E6 cells, the cytotoxicity at 0.193125 µM came out at 41.2%, the cytotoxicity at 0.39 µM amounted to 28.8%, the cytotoxicity at 0.49485 µM is 9.98% and the cytotoxicity at 0.79588 µM is 52.9%. For the same molecule, the cytotoxicity at 1.09691 µM in the test with Vero E6 cells worked out at 10.9%.
Regarding `COc1cc2c(cc1O)C(Cc1ccc(O)cc1)NCC2` (stereo not drawn) [Compound 11, coclaurine], in the test with GX_P2V, the inhibition at 0.49485 µM was determined as 33.2% and the inhibition at 1.69897 µM was 28.7%. Moreover, the cytotoxicity at 0.193125 µM with Vero E6 cells amounted to 8.1%.
On to `COc1ccc(C[C@H]2c3cc(O)c(OC)cc3CCN2C)cc1O` [Compound 12, reticuline], for which, in the test on GX_P2V, the inhibition at 0.39 µM is 81.7%, the inhibition at 0.49485 µM stood at 27.4%, the inhibition at 0.78 µM came to 60% and the inhibition at 0.79588 µM was determined as 65.7%. Further, in the test with GX_P2V, the inhibition at 1.09691 µM was determined as 49.6% and the inhibition at 1.39794 µM was 28.1%.
`COc1cc2c(cc1O)[C@@H](Cc1ccc(Oc3cc(C[C@@H]4c5cc(O)c(OC)cc5CCN4C)ccc3O)cc1)N(C)CC2` [Compound 32, guatteguamerine]: the “Antiviral activity (bioactivity) in dose-response analysis” value in the test with GX_P2V is “lacked antiviral activity”.
With `COc1cc2c3cc1Oc1cc(ccc1O)C[C@@H]1c4c(cc(OC)c(O)c4Oc4ccc(cc4)C[C@H]3N(C)CC2)CCN1C` [L-curine], the inhibition at 0.49485 µM in the test with GX_P2V stood at 81.4%.
As for `COc1cc(C[C@H]2c3cc(OC)c(OC)c(OC)c3CCN2C)c(Oc2cc3c(cc2OC)-c2c(OC)c(OC)c(OC)c4c2[C@H](C3)N(C)CC4)cc1OC` [Methoxyadiantifoline (37), methoxyadiantifoline], in the test with GX_P2V, the “Percentage of Inhibition (%)” value was determined as 100.000%.
